The text below walks through data of patent US20060045847A1, “Method for determination of anabolic activity” (priority 2004, published 2006).

Test [1] relates to gonadectomized (GDX) male C57BL6 mice. Nature of the test: 7-day daily s.c. treatment, androgen-sensitive tissue weights in gonadectomized mice. The class given is in vivo, mouse. The settings on record: daily s.c. 7 days, DHT 0.1 mg or THG 0.5 mg; for levator ani muscle weight: versus intact animals; for prostate weight: versus intact controls. From the text: We next used the best recognized in vivo assay to assess the in vivo activity of THG [Labrie, C., A. Bélanger, and F. Labrie, Androgenic activity of dehydroepiandrosterone and androstenedione in the rat ventral prostate. Endocrinology, 1988. 123: p. 1412-1417]. […] The levator ani is an androgen-sensitive muscle [Boissonneault, G., et al., Depressed translational activity in the androgen sensitive levator ani muscle of the rat. J Steroid Biochem, 1989. 32(4): p. 507-13] which has long been recognized as a myotropic marker of the androgenic/anabolic activity of steroids [Eisenberg, S., R. Buie, Jr., and L. Tobian, Jr., Adrenal cortical function in essential hypertension; a study of sweat sodium concentration. Am J Med Sci, 1950. 220(3): p. 287-9].
Eleven- to twelve-week-old male C57BL6 mice obtained from Harlan (Indianapolis, Ind.) were allowed to acclimate for 2 weeks. The animals were housed individually in an environmentally-controlled room (temperature: 22±3° C.; humidity: 50±20%; 12-h light-12-h dark cycles, lights on at 07:15 h). The mice had free access to tap water and a certified rodent feed (Lab Diet 5002 (pellet), Ralston Purina, St-Louis, Mo.). The experiment was conducted in an animal facility approved by the Canadian Council on Animal Care (CCAC) and the Association for Assessment and Accreditation of Laboratory Animal Care (AAALAC). The study was performed in accordance with the CCAC Guide for Care and Use of Experimental Animals.
(§1) Animals weighing between 24.0 and 32.4 g (mean=28.2 g) were randomized according to body weight and were assigned to nineteen groups of 10 animals each. On day 1 of the study, animals were castrated (GDX) under isoflurane anesthesia. All animals were sacrificed 7 days after GDX. […] A GDX-vehicle injected group were used as a control. Eight intact mice of the same strain, age and body weight were sacrificed as described above and tissues were collected, weighed and discarded. The mice sacrificed 2, 4 and 7 days after starting treatment received daily injection of the steroids and were sacrificed 24 h after last injection under isoflurane anesthesia and exsanguinated via cardiac puncture. The prostate (ventral+dorsal), seminal vesicles, preputial glands as well as gastrocnemius and levator ani muscle were collected, freed from adhering tissue or fluid and weighed.

Another test addresses T1, human androgen receptor (Homo sapiens, UniProt P10275).
T1 construct: expressed in transfected cells; host or cells: HEK-293 cells stably transfected with the pCMV neo-hAR plasmid; the 105 000 x g cytosol was used
T1 sequence (P10275 1-920): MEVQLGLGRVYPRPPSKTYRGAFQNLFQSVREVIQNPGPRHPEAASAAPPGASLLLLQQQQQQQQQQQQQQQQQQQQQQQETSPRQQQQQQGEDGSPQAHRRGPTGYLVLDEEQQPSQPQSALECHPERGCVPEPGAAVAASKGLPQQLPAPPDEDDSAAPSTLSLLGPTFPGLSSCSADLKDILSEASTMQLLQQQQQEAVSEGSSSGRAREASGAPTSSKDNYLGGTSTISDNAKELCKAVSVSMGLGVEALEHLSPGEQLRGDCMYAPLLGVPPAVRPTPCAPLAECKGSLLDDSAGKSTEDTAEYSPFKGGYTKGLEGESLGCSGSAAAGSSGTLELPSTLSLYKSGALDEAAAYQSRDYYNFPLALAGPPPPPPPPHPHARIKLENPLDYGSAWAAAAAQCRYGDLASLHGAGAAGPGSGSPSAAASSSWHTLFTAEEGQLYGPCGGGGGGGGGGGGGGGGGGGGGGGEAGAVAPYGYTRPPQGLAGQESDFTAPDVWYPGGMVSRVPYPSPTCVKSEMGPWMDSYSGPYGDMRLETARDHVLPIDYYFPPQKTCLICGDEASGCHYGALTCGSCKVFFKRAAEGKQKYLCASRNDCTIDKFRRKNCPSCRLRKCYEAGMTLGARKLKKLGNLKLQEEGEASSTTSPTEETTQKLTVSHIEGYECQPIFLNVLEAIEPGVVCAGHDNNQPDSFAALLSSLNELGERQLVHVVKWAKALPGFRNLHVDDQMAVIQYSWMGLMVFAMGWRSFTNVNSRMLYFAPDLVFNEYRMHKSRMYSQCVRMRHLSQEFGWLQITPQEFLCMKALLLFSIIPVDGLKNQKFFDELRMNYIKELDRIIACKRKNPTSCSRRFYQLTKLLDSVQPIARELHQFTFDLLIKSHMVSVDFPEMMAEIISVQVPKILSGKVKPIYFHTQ
The test is described as follows: Androgen receptor (AR) binding assay, displacement of [3H]R1881 (hydroxylapatite method). As for the experimental part:
The incubation was performed with 3 nM [^3H]R1881 for 16 h at 0-4° C. in the presence or absence of the indicated concentrations of unlabeled compounds.
Androgen Receptor (AR) Assay
Preparation of Human Embryonic Kidney (HEK-293) cells stably Transfected with Human AR (hAR): The pCMV neo-hAR plasmid [Huang, X.-F. and V. Luu-The, Modulation of the androgenic response by recombinant human 11-cis retinol dehydrogenase. J. Steroid Biochem., 2001. 77(2-3): p. 129-133] was transfected into HEK-293 cells using lipofectin transfection kit (Life Technologies, Ontario, Canada), and cells resistant to G418 were isolated as previously described [Dufort, I., et al., Characteristics of a highly labile human type 5 17beta-hydroxysteroid dehydrogenase. Endocrinology, 1999. 140(2): p. 568-574]. On the morning of the binding assay, a pellet of HEK-293 hAR cells was thawed, suspended in buffer, sonicated and centrifuged at 105 000×g for 90 min. The androgen binding assay was performed with the hydroxylapatite (HAP) method [Martel, C., et al., Binding characteristics of novel nonsteroidal antiestrogens to the rat uterine estrogen receptors. J. Steroid Biochem. Mol. Biol., 1998. 64: p. 199-205] using HEK-293 hAR cell cytosol preparation (0.1 ml) and 3 nM [^3H]R1881.

Test [2] relates to androgen-sensitive genes in levator ani muscle, gastrocnemius muscle and prostate. The test is described as follows: Microarray gene expression profile in tissues of GDX mice, genes modulated in common with DHT. Format: in vivo, mouse. The following applies: s.c. 0.5 mg THG vs 0.1 mg DHT, 0.5 h to 7 days.
Text: The genes selected were those identified in common according to the Affymetrix, MAS 5.0 and RMA program [Gautier, L., et al., affy—analysis of Affymetrix GeneChip data at the probe level. Bioinformatics, 2004. 20(3): p. 307-15]. Color scale representing days of fold change due to treatments is shown below the figure.
The selected genes were clustered by Euclidean distance. Columns represents each one of the 790 selected gene and each row a particular treatement group. A pseudo-colored representation of relative intensity is shown such that red indicates high, blue low and yellow unchanged expression, with scale shown at the right.
In the prostate, on the other hand, the classical androgen-sensitive tissue [Labrie, C., A. Bélanger, and F. Labrie, Androgenic activity of dehydroepiandrosterone and androstenedione in the rat ventral prostate. Endocrinology, 1988. 123: p.
as §1, with “The prostate (ventral+dorsal), seminal vesicles, preputial glands as well as gastrocnemius and levator ani muscle were collected, freed from adhering tissue or fluid and weighed.” left out
RNA extraction and microarrays tissues were snap-frozen in liquid nitrogen and kept at −80° C. prior to RNA extraction. […] Scanned images were analyzed with Affymetrix GCOS v1.1 software and with GeneSpring 6.1 software (Silicon Genetics, Redwood City, Calif.) as described [Vasseur, S., et al., Gene expression profiling by DNA microarray analysis in mouse embryonicfibroblasts transformed by rasV12 mutated protein and the E1A oncogene. […]

Another test concerns mouse prostate. The test is described as follows: Preliminary experiment: stimulation of mouse prostate weight, potency relative to DHT. The class given is in vivo. The following applies: data not shown. From the text: We next used the best recognized in vivo assay to assess the in vivo activity of THG [Labrie, C., A. Bélanger, and F. Labrie, Androgenic activity of dehydroepiandrosterone and androstenedione in the rat ventral prostate. Endocrinology, 1988. 123: p. 1412-1417]. […] Similar observations were made for the preputial gland. The levator ani is an androgen-sensitive muscle [Boissonneault, G., et al., Depressed translational activity in the androgen sensitive levator ani muscle of the rat. J Steroid Biochem, 1989. 32(4): p. 507-13] which has long been recognized as a myotropic marker of the androgenic/anabolic activity of steroids [Eisenberg, S., R. Buie, Jr., and L. Tobian, Jr., Adrenal cortical function in essential hypertension; a study of sweat sodium concentration. Am J Med Sci, 1950. 220(3): p. 287-9].

Like-named read-outs stand apart in the source and are kept apart here.

`C[C@]12CCC(=O)C[C@@H]1CC[C@@H]1[C@@H]2CC[C@]2(C)[C@@H](O)CC[C@@H]12` [DHT, dihydrotestosterone, reference compound]: in test [1], the preputial gland weight entry is “completely reversed the GDX-induced atrophy”, the seminal vesicle weight entry was “completely reversed the GDX-induced atrophy”, the “levator ani muscle weight” value is reported as “increased weight of levator ani to values not different from intact animals” and the prostate weight entry is “completely reversed the GDX-induced atrophy of the prostate”.

Take `C[C@]1(O)CC[C@H]2[C@@H]3CCC4=CC(=O)CCC4=C3C=C[C@@]21C` [R1881, methyltrienolone, reference compound]: the “relative potency to displace [3H]R1881 from the human AR” value at human androgen receptor came to 0.72.

Consider `CC[C@]1(O)CC[C@H]2[C@@H]3CCC4=CC(=O)CCC4=C3C=C[C@@]21CC` [THG, tetrahydrogestrinone], for which, in test [2], the “number of genes commonly modulated by DHT and THG in gastrocnemius muscle” value was 112 genes; the “number of genes commonly modulated by DHT and THG in levator ani muscle” value was found to be 790 genes; the “number of genes commonly modulated by DHT and THG in prostate” value is given as 1121 genes. Besides, in the test on mouse prostate, the “potency relative to DHT as stimulator of the weight of the mouse prostate” value is given as 20%. On human androgen receptor (3 nM [3H]R1881, 16 h at 0-4° C., HEK-293 hAR cell cytosol, THG = 1.0), the “relative potency to displace [3H]R1881 from the human AR” value was found to be 1.0. Besides, in test [1], the preputial gland weight result was “completely reversed the GDX-induced atrophy”; the seminal vesicle weight result is listed as “completely reversed the GDX-induced atrophy”; the “levator ani muscle weight” value is on record as “increased weight of levator ani to values not different from intact animals”; the prostate weight entry is “reversed the effect of GDX, to a value not statistically different from intact controls”.
